Reference: ChEMBL document CHEMBL1154658, “Novel macrocyclic inhibitors of hepatitis C NS3/4A protease featuring a 2-amino-1,3-thiazole as a P4 carbamate replacement” (J Med Chem, 2009)
pEC50, pKi: −log10 of the molar value.

Experiments:
[1] = (§1) AUC (0 to 4 hrs) in Sprague-Dawley rat at 5 mg/kg, po; type: ADME, organism-based, Plasma; parameters: time < 4 hr, dose 5 mg/kg, route oral; settings: Sprague-Dawley, plasma
Hepatitis C virus [2] = experiment: Inhibition of HCV 1b NS3/4A protease by time-resolved fluorescence assay; parameters: species or system Hepatitis C virus subtype 1b
Hepatitis C virus [3] = experiment: Antiviral activity against HCV 1b infected in human Huh7 cells by bicistronic replicon RNA assay in presence of 10% fetal bovine serum; type: functional, organism-based, Hepacivirus hominis; settings: genotype 1b, Huh-7
Hepatitis C virus [4] = experiment: Antiviral activity against HCV 1b infected in human Huh7 cells by bicistronic replicon RNA assay in presence of 50% normal human serum; type: functional, organism-based, Hepacivirus hominis; settings: genotype 1b, Huh-7
[5] = Drug level in Sprague-Dawley rat liver at 5 mg/kg, po after 4 hrs; type: ADME, organism-based; parameters: dose 5 mg/kg, route oral; settings: read-out: Drug uptake
[6] = Bioavailability in Sprague-Dawley rat at 4 mg/kg, iv; type: ADME, organism-based; settings: in vivo
[7] = Drug level in Sprague-Dawley rat liver at 4 mg/kg, po after 4 hrs; type: ADME, organism-based; parameters: dose 4 mg/kg, route oral; settings: read-out: Drug uptake
[8] = Plasma clearance in Sprague-Dawley rat at 4 mg/kg, iv; type: ADME, organism-based; parameters: dose 4 mg/kg, route intravenous
[9] = Inhibition of HCV 2a NS3/4A protease; parameters: species or system Hepatitis C virus subtype 2a
[10] = Oral bioavailability in Sprague-Dawley rat at 4 mg/kg; type: ADME, organism-based; settings: in vivo
[11] = (§2) Plasma clearance in Sprague-Dawley rat at 4 mg/kg, po; type: ADME, organism-based; parameters: dose 4 mg/kg, route oral; settings: Sprague-Dawley, plasma
[12] = (§3) AUC (0 to 4 hrs) in Sprague-Dawley rat at 4 mg/kg, po; type: ADME, organism-based, Plasma; parameters: time < 4 hr, dose 4 mg/kg, route oral; settings: Sprague-Dawley, plasma
[13] = Cmax in Sprague-Dawley rat at 4 mg/kg, iv; type: ADME, organism-based; parameters: dose 4 mg/kg, route intravenous; settings: in vivo
[14] = Inhibition of HCV 3a NS3/4A protease; parameters: species or system Hepatitis C virus subtype 3a
[15] = Inhibition of HCV NS3/4A protease; parameters: species or system Hepacivirus hominis
[16] = AUC in Sprague-Dawley rat at 4 mg/kg, iv; type: ADME, organism-based; parameters: dose 4 mg/kg, route intravenous; settings: plasma
Rattus norvegicus [17] = experiment: as §1; type: ADME, organism-based, Plasma; parameters: time < 4 hr, dose 5 mg/kg, route oral; settings: in vivo, 4 h
[18] = Oral bioavailability in Sprague-Dawley rat at 5 mg/kg; type: ADME, organism-based; settings: in vivo
Rattus norvegicus [19] = experiment: Plasma clearance in Sprague-Dawley rat at 5 mg/kg, po; type: ADME, organism-based; parameters: dose 5 mg/kg, route oral; settings: in vivo
[20] = Selectivity for HCV NS3/4A protease over trypsin
[21] = Selectivity for HCV NS3/4A protease over chymotrypsin
Rattus norvegicus [22] = experiment: as §2; type: ADME, organism-based; parameters: dose 4 mg/kg, route oral; settings: in vivo
Rattus norvegicus [23] = experiment: as §3; type: ADME, organism-based, Plasma; parameters: time < 4 hr, dose 4 mg/kg, route oral; settings: in vivo, 4 h

Structure (SMILES) | AUC(0-t) at 4 h [1] [µM·h] | pKi (Hepatitis C virus [2]) | pEC50 (Hepatitis C virus [3]) | pEC50 (Hepatitis C virus [4]) | concentration at 4 h [5] [nM] | other results
C=C[C@@H]1C[C@]1(NC(=O)[C@@H]1C[C@@H]2CN1C(=O)[C@H](C(C)C)Nc1nc(cs1)C(C)(C)CCCc1ccc3ccnc(c3c1)O2)C(=O)NS(=O)(=O)C1CC1.O=C(O)C(F)(F)F | 0.8 | 8.52 | 7.70 | 7.00 | 3600 | 
C=C[C@@H]1C[C@]1(NC(=O)[C@@H]1C[C@@H]2CN1C(=O)[C@H]([C@@H](C)CC)Nc1nc(cs1)CCC/C=C/c1cccc3c1CN(C3)C(=O)O2)C(=O)NS(=O)(=O)C1CC1.O=C(O)C(F)(F)F |  | 10.40 | 8.70 | 7.74 |  | bioavailability [6]: 13%; concentration at 4 h [7]: 350 nM; clearance [8]: 17 mL/min/kg; EC90 (Hepatitis C virus [3]): 3 nM; pKi [9]: 9.40; EC90 (Hepatitis C virus [4]): 40 nM; bioavailability [10]: 13%; CL/F [11]: 17 mL/min/kg; AUC(0-t) at 4 h [12]: 0.7 µM·h; Cmax [13]: 400 nM; pKi [14]: 7.35; pKi [15]: 8.40; AUC [16]: 0.7 µM·h
CCC1C[C@]1(NC(=O)[C@@H]1C[C@@H]2CN1C(=O)[C@H](C1CCCCC1)Nc1nc(cs1)CCC/C=C/c1cccc3c1CN(C3)C(=O)O2)C(=O)NS(=O)(=O)C1CC1.O=C(O)C(F)(F)F (single isomer, unassigned) |  | 9.80 | 7.92 | 7.30 |  | concentration at 4 h [7]: 570 nM; bioavailability [10]: < 0.01%; CL/F [11]: 56 mL/min/kg; AUC(0-t) at 4 h [12]: < 0.01 µM·h
C=C[C@@H]1C[C@]1(NC(=O)[C@@H]1C[C@@H]2CN1C(=O)[C@H](C(C)C)Nc1nc(cs1)CCC/C=C/c1cccc3c1CN(C3)C(=O)O2)C(=O)NS(=O)(=O)C1CC1.O=C(O)C(F)(F)F |  | 9.80 | 8.30 | 7.30 | 600 | AUC (Rattus norvegicus [17]): 0.4 µM·h; bioavailability [18]: 8%; CL (Rattus norvegicus [19]): 21 mL/min/kg
C=C[C@@H]1C[C@]1(NC(=O)[C@@H]1C[C@@H]2CN1C(=O)[C@H](C(C)(C)C)Nc1nc(cs1)CCCCc1ccc3ccnc(c3c1)O2)C(=O)NS(=O)(=O)C1CC1.O=C(O)C(F)(F)F | 0.1 | 9.70 | 7.70 | 6.89 | 1000 | 
C=C[C@@H]1C[C@]1(NC(=O)[C@@H]1C[C@@H]2CN1C(=O)[C@H]([C@@H](C)CC)Nc1nc(cs1)CCC/C=C/c1cccc3c1CN(C3)C(=O)O2)C(=O)NS(=O)(=O)C1CC1 |  |  |  |  |  | fold change (FC) [20]: > 15000; fold change (FC) [21]: > 15000
C=C[C@@H]1C[C@]1(NC(=O)[C@@H]1C[C@@H]2CN1C(=O)[C@H](C1CCCCC1)Nc1nc(cs1)CCCCc1ccc3ccnc(c3c1)O2)C(=O)NS(=O)(=O)C1CC1.O=C(O)C(F)(F)F | 4.7 | 8.89 | 7.52 | 6.46 | 3400 | 
C=C[C@@H]1C[C@]1(NC(=O)[C@@H]1C[C@@H]2CN1C(=O)[C@H](C(C)(C)C)Nc1nc(cs1)CCC/C=C/c1cccc3c1CN(C3)C(=O)O2)C(=O)NS(=O)(=O)C1CC1.O=C(O)C(F)(F)F |  | 9.80 | 8.52 | 7.64 |  | concentration at 4 h [7]: 130 nM; bioavailability [10]: 6%; CL (Rattus norvegicus [22]): 85 mL/min/kg; AUC (Rattus norvegicus [23]): 0.06 µM·h
C=C[C@@H]1C[C@]1(NC(=O)[C@@H]1C[C@@H]2CN1C(=O)[C@H](C(C)C)Nc1nc(cs1)CC/C=C/c1ccc3ccnc(c3c1)O2)C(=O)NS(=O)(=O)C1CC1.O=C(O)C(F)(F)F | 0.9 | 8.30 | 7.52 | 6.14 | 2400 | 
C=C[C@@H]1C[C@]1(NC(=O)[C@@H]1C[C@@H]2CN1C(=O)[C@H](C1CCCCC1)Nc1nc(cs1)CCC/C=C/c1cccc3c1CN(C3)C(=O)O2)C(=O)NS(=O)(=O)C1CC1.O=C(O)C(F)(F)F |  | 10.40 | 8.52 | 7.80 |  | concentration at 4 h [7]: 350 nM; bioavailability [10]: 8%; CL (Rattus norvegicus [22]): 17 mL/min/kg; AUC (Rattus norvegicus [23]): 0.4 µM·h
C=C[C@@H]1C[C@]1(NC(=O)[C@@H]1C[C@@H]2CN1C(=O)[C@H](C(C)(C)C)NC(=O)OCCCCCc1ccc3ccnc(c3c1)O2)C(=O)NS(=O)(=O)C1CC1 | 0.27 | 9.70 | 8.06 | 7.34 | 13400 | 
C=C[C@@H]1C[C@]1(NC(=O)[C@@H]1C[C@@H]2CN1C(=O)[C@H](C1CCCC1)Nc1nc(cs1)CCC/C=C/c1cccc3c1CN(C3)C(=O)O2)C(=O)NS(=O)(=O)C1CC1.O=C(O)C(F)(F)F |  | 10.10 | 8.70 | 7.80 |  | concentration at 4 h [7]: 180 nM; EC90 (Hepatitis C virus [3]): 3 nM; EC90 (Hepatitis C virus [4]): 34 nM; bioavailability [10]: 36%; CL/F [11]: 25 mL/min/kg; AUC(0-t) at 4 h [12]: 0.7 µM·h
C=C[C@@H]1C[C@]1(NC(=O)[C@@H]1C[C@@H]2CN1C(=O)[C@H](C(C)C)Nc1nc(cs1)CCCCc1ccc3ccnc(c3c1)O2)C(=O)NS(=O)(=O)C1CC1.O=C(O)C(F)(F)F | 9.9 | 8.77 | 7.22 | 6.04 | 5500 | bioavailability [18]: 60%
C=C[C@@H]1C[C@]1(NC(=O)[C@@H]1C[C@@H]2CN1C(=O)[C@H](C(C)C)Nc1nc(cs1)CCCCc1ccc3nc(-c4ccccc4)cc(c3c1)O2)C(=O)NS(=O)(=O)C1CC1.O=C(O)C(F)(F)F | < 0.01 | 9.30 | 7.40 | 6.41 | < 10 | 
C=C[C@@H]1C[C@]1(NC(=O)[C@@H]1C[C@@H]2CN1C(=O)[C@H](C(C)C)Nc1nc(cs1)CCCCCc1ccc3ccnc(c3c1)O2)C(=O)NS(=O)(=O)C1CC1 |  | 8.82 | 6.92 | 6.08 |  | 
C=C[C@@H]1C[C@]1(NC(=O)[C@@H]1C[C@@H]2CN1C(=O)[C@H](C(C)C)NC1=NN=C(CCCCc3ccc4ccnc(c4c3)O2)O1)C(=O)NS(=O)(=O)C1CC1 | 0.1 | 9.05 | 7.10 | 6.74 | 30 | 
C=C[C@@H]1C[C@]1(NC(=O)[C@@H]1C[C@@H]2CN1C(=O)[C@H](C(C)(C)C)Nc1nc(cs1)CCCCCc1cccc3c1CN(C3)C(=O)O2)C(=O)NS(=O)(=O)C1CC1.O=C(O)C(F)(F)F |  | 9.80 | 8.40 | 7.72 | 60 | AUC (Rattus norvegicus [17]): 0.06 µM·h; bioavailability [18]: 5%; CL (Rattus norvegicus [19]): 95 mL/min/kg
